Measured values taken from patent US5792745A, “Use of peptides for altering bone resorption” (La Jolla Cancer Research Center, priority 1995, dated 1998).
“Also recorded” adds a separate entry of the source. Where a SMILES comes first, the peptide text is derived from it. Bridges are numbered along the chain shown (N, C = ends). [ ]: non-standard residue; d: D form. Tic = O=C(O)[C@@H]1Cc2ccccc2CN1; Mpa = O=C(O)CCS

Tests used:
[1] = biological target: T1, α5 β1 (FnR) (Homo sapiens, UniProt P05556+P08648); test: α5 β1 ELISA (competitive); type: binding; conditions: comparison of ELISA values
T1 construct: Fibronectin receptor (FnR) was purified from 100 mM octyl-glucopyranoside-extracted human placenta; from tissue
Protocol: Peptide binding to purified human αv β5 and αv β3, which are VnR's, and to α5 β1, which is a FnR, was determined using competitive ELISA assays as described below. If desired, an αIIb β3 ELISA can be performed as described in W091/15515.
Peptide binding to purified human α5 β1 (FnR) also was determined using a competitive ELISA. In these assays, Fn was immobilized to the wells and the binding of solubilized FnR in the presence of various concentrations of a peptide analogue was determined using a mouse monoclonal antibody to human β1 (clone P4C10; Gibco) and specific binding was visualized using a second antibody.
Microtiter wells were coated at RT by adding 100 μl of 2 μg/ml human Fn in TBS and incubating the plates overnight at 4° C. Following incubation, the plates were washed 3× with TBS/"TWEEN 20" (polyoxyethylenesorbitan monolaurate). RGD peptides were diluted in TBS containing 20 mM OG and 2 mM MnCl2 and 50 μl was added to wells at 10-fold serial dilutions. FnR was diluted in the same buffer and 50 μl was added to each well.
The plates were incubated for 3 hr at RT and washed with 300 μl TBS/"TWEEN 20" (polyoxyethylenesorbitan monolaurate). Bound receptor was incubated with 100 μl of the monoclonal anti-β1 antibody for 2 hr, then washed 3× with TBS/"TWEEN 20" (polyoxyethylenesorbitan monolaurate). […] The amount of bound second antibody was determined as described above. […]

[2] = test system: integrin receptors / osteoclasts; test: series of assays of Examples II and III for potency and selectivity (summary); conditions: for activity of minimal-element peptides (in words): FIG. 2
Excerpt: Peptides of the RGDNTic (SEQ ID NO: 31) pharmacophore group are characterized, in general, as having increased potency, whereas the peptides of the pharmacophore RGDDV (SEQ ID NO: 1) group generally have higher receptor selectivity. […] As used herein, the term "potency" or "potent" means that a peptide of the invention is active at a relatively low concentration in the assays described in Examples II and III. A potent peptide of the invention can be identified, for example, using the assays described in Examples II and III.
The present invention also provides a series of in vitro and in vivo assays useful for screening a panel of peptides in order to identify peptides that can reduce or inhibit bone resorption or that can alter integrin binding such as αv β3 integrin receptor-mediated binding. Such peptides can include, for example, peptides within the pharmacophore groups exemplified herein or peptides within other pharmacophore groups. The series of assays disclosed herein is particularly useful for determining the selectivity and potency of a peptide for reducing or inhibiting bone resorption. The selectivity of a peptide for an integrin receptor involved in osteoclast binding to bone can be determined, for example, using the integrin receptor assays and cell attachment and detachment assays described herein. Use of cell-based assays in conjunction with receptor-based assays is informative because the receptor ELISAs provide useful information regarding the binding characteristics of a particular peptide toward a particular integrin and because the cell-based assays confirm that those characteristics are relevant to the αv β3 receptor or to bone resorption.

[3] = test system: parathyroid hormone-induced hypercalcemia; test: parathyroid hormone-induced hypercalcemia in mice; type: in vivo; conditions: parathyroidectomized mice, 4 hr peptide infusion, FIG. 9
[4] = test system: rat osteoclasts; test: rat osteoclast attachment assay compared with MG63 / NRK cell attachment; type: cell-based; conditions: FIGS. 7 and 8 compared
Protocol: 3. Rat osteoclast attachment assay
To determine the effect of a peptide on the attachment of rat osteoclasts in vitro, 100 μl aliquots of the rat pup bone cell suspension described in Example II.B.2., above, were added in triplicate to 96 well MAXISORP plates coated with specific substrates or with FCS. Substrate coated plates were used to determine the ability of peptides to inhibit attachment or induce detachment of an osteoclast from a ligand such as vitronectin, fibronectin, osteopontin or collagen I (Collaborative Research), which are ligands present in bone. Substrates were added to 96 well plates (50 μl of a 5-10 μg/ml solution in sodium carbonate, pH 9.5) and incubated for 2 hr at 37° C. For FCS control wells, 100 μl 10% FCS was added. Wells were aspirated, then washed 2× with PBS and blocked with 1% bovine serum albumin in PBS for 2 hr at 37° C. Wells were aspirated and washed again 2× with PBS. Cells were seeded in duplicate at 4×10^4 cells/well. […]
Following incubation, the medium and nonadherent cells were removed by aspiration from each well. […] Adherent osteoclasts were counted by light microscopy. […]
MG63 and NRK cell lines were purchased from ATTC (Rockville, Md.). […] Following staining, the stain was extracted with 20% acetic acid and the OD562 of the extracted stain was determined. […]
Selectivity of a peptide can be determined by comparing the results of FIGS. 7 and 8 (see, also FIG. 2).

[5] = test system: chick osteoclasts; test: chick cell detachment assay (osteoclasts vs total cells); type: cell-based; conditions: FIG. 5
[6] = biological target: T2, αv β3 receptor (Homo sapiens, UniProt P05106+P06756); test: αv β3 ELISA (competitive); type: binding; conditions: ELISA / JY cell IC50 values of FIG. 2 compared
T2 construct: The αv β3 receptor was purified from octyl-glucopyranoside-extracted human placenta; from tissue
Protocol: Peptide binding to purified αv β3 receptor was determined by using a competitive ELISA, in which αv β3 receptor was immobilized and the binding of solubilized VN, in the presence of various concentrations of peptide analogue, was detected using a monoclonal mouse IgG anti-VN antibody and a labelled anti-mouse IgG conjugate.
50 μl of Vn in the same buffer then was added to each well.
The development process was stopped by adding 50 μl to 4N H2 SO4 to each well. The plates were read at 490 nm and the data analyzed by four parameter fit.

[7] = test system: neointimal hyperplasia; conditions: rabbit, in vivo; cited from earlier work
[8] = test system: bone resorption; conditions: cited from earlier work
[9] = test system: osteoclasts; conditions: cited from earlier work

## N=C(N)NCCC[C@@H]1NC(=O)CC[C@@H](C(N)=O)NC(=O)[C@@H]2CCCN2C(=O)[C@H](CO)NC(=O)[C@H](CC(=O)O)NC(=O)CNC1=O [compound 825] (RGDSPE-NH2; lactam N-6)
[1]
  receptor selectivity for α5 β1 versus αv β5: more selective toward α5 β1 than toward αv β5

## C[C@@H]1NC(=O)[C@H](CCCNC(=N)N)NC(=O)CNC(=O)CC[C@@H](C(N)=O)NC(=O)[C@@H]2CCCN2C(=O)[C@H](CC(N)=O)NC(=O)[C@H](CC(=O)O)NC(=O)CNC(=O)[C@H](CCCNC(=N)N)NC1=O [compound 390] (GRARGDNPE-NH2; lactam N-9)
[1]
  receptor selectivity for α5 β1 versus αv β5: more selective toward α5 β1 than toward αv β5

## CC(C)[C@@H]1NC(=O)[C@H](CC(=O)O)NC(=O)[C@H](CC(=O)O)NC(=O)CNC(=O)[C@H](CCCNC(=N)N)NC(=O)CC[C@@H](C(N)=O)NC1=O [peptide 386, RGDDVE-NH2] (RGDDVE-NH2; lactam N-6)
[2]
  activity of minimal-element peptides (in words): demonstrate activity
[3]
  PTH-induced change in serum ionized calcium: relatively low level of serum calcium
[4]
  selectivity: osteoclast attachment versus MG63 or NRK attachment: selective
[5]
  selective detachment of osteoclasts versus other cell types: caused selective detachment of osteoclasts as compared to other cell types

## CC(C)[C@@H]1NC(=O)[C@H](CC(=O)O)NC(=O)[C@H](CC(=O)O)NC(=O)CNC(=O)[C@H](CCCNC(=N)N)NC(=O)CCSSC[C@@H](C(N)=O)NC1=O [compound 191] ([Mpa]RGDDVC-NH2; disulfide 1-7)
[3]
  PTH-induced change in serum ionized calcium: decreased the PTH-induced rise in serum ionized calcium in a dose responsive manner

## CC(C)[C@@H]1NC(=O)[C@H](CC(=O)O)NC(=O)[C@H](CC(=O)O)NC(=O)CNC(=O)[C@H](CCCNC(=N)N)NC(=O)CNC(=O)C[C@@H](C(N)=O)NC1=O [peptide 368] (GRGDDVD-NH2; lactam N-7)
[2]
  both potent and selective (summary classification): both potent and selective
  receptor selectivity (summary classification): particularly receptor selective
[6]
  receptor selectivity for αv β3 versus αv β5 and α5 β1 (comparison of IC50 values): receptor selective for αv β3; also recorded: selective peptide

## CC(=O)N[C@H]1CSSC[C@@H](C(N)=O)NC(=O)[C@@H]2Cc3ccccc3CN2C(=O)[C@H](CO)NC(=O)[C@H](CC(=O)O)NC(=O)CNC(=O)[C@H](CCCNC(=N)N)NC1=O [compound 812, Ac-CRGDS(Tic)C-NH2] (Ac-CRGDS[Tic]C-NH2; disulfide 1-7)
[2]
  activity of minimal-element peptides (in words): demonstrate activity

## G(Pen)GRGDSPCA
[7]
  inhibition of neointimal hyperplasia (literature): can inhibit neointimal hyperplasia

## Echistatin
[8]
  inhibition of bone resorption in vivo (literature): inhibits bone resorption
[9]
  binding to osteoclasts (literature): binds to osteoclasts in a nonselective manner
[9]; in vitro
  inhibition of bone resorption in vitro (literature): inhibits bone resorption in vitro
